From US12109215B2, “Combination therapies for inhibition of polo-like kinase 4” (UNIVERSITY HEALTH NETWORK, priority 2017, dated 2024)

Experiments:
[1] = test system: CT26 tumor; experiment: Established CT26 tumor treatment in BALB/cJ mice (tumor volume, regression); format: in vivo
Protocol: (§1) BALB/cJ mice were inoculated subcutaneously with 1×10^6 CT26 cells, and C57BL/6 mice were inoculated subcutaneously with 0.5×10^6 MC38 cells. The mice were then randomized. Animal weights were monitored daily, and tumor volume was measured three times per week.
(§2) […] was defined as 100×[1−TVf,treated−TVi,treated)/(TVf,control−TVi,control)], where TVf is the average tumor volume at the end of study and TVi is the average tumor volume at the end initiation of treatment. In cases in which tumor regression occurred, percentage of tumor regression was defined as 100×[1−(TVf,treated/TVi,treated)]. At the completion of each study, the mice were killed by an anesthetic overdose, and tumor tissue was removed for further analysis.
(§3) Treatments were initiated when tumor volumes reached an average size of ˜60 mm^3. To treat an established CT26 or MC38 tumor, the animals were first assigned into groups, i.e., the control group receiving rat IgG2a isotype control, the group receiving the compound CFI-400945 monotherapy, the group receiving the rat IgG2a anti-PD-1 antibody monotherapy and the group receiving the combination therapy.
The compound CFI-400945 and the vehicle (water) were administered by oral gavage (PO), at one of the following dosages: (i) 6.5 mg/kg once daily (QD) for 21 days; (ii) 13 mg/kg twice a week (BIW or 2 on/5 off) for 21 days; (iii) 52 mg/kg once weekly (QW) for 21 days; and (iv) 104 mg/kg in two doses, i.e., on Days 0 and 14.
(§4) The anti-PD-1 antibody or the isotype control were administered by intraperitoneal (IP) injection. 150 μg anti-PD-1 antibody was administered in four doses, i.e., on Days 0, 3, 6 and 10.

[2] = Tolerability in the CT26 tumor study (body weight, animal death); format: in vivo
Protocol: as §1, §4

[3] = test system: CT26 cells; experiment: Re-challenge by inoculation with CT26 cells on Day 36 of animals with complete regression; format: in vivo, BALB/cJ mice
Protocol: Further to the tumor volume measurements, the animals in which complete regression had occurred as described above, either by CFI-400945 monotherapy or by IgG2a anti-PD-1 antibody-CFI-400945 combination therapy, were re-challenged by inoculation with CT26 cells on Day 36, as shown in FIGS. 1D (6.5 mg/kg QD CFI-400945+anti-PD-1 antibody), 1E (13 mg/kg BIW CFI-400945), 1F (13 mg/kg BIW CFI-400945+anti-PD-1 antibody), 1G (52 mg/kg QW CFI-400945), 1H (52 mg/kg QW CFI-400945+anti-PD-1 antibody) and 1J (104 mg/kg CFI-400945 on Days 0 and 14+anti-PD-1 antibody).

[4] = test system: MC38 tumor; experiment: Established MC38 tumor treatment in C57BL/6 mice (tumor volume, regression); format: in vivo; conditions: first batch of MC38 experiments; CFI-400945 6.5 mg/kg once daily for 21 days, alone (FIG. 2C) or with anti-PD-1 antibody 150 μg Days 0, 3, 6, 10 (FIG. 2D)
Protocol: as §1, §2
as §3, with “therapy. […]” for “therapy.”

[5] = CFI-400945 104 mg/kg PO on Days 0 and 14

**Q.** With `COc1ccc2c(c1)[C@]1(C[C@H]1c1ccc3c(/C=C/c4ccc(CN5C[C@@H](C)O[C@@H](C)C5)cc4)n[nH]c3c1)C(=O)N2` [CFI-400945] as the compound, how does the “complete regression of CT26 tumors” value ([1]; CFI-400945 6.5 mg/kg PO once daily for 21 days, alone (FIG. 1C) or with anti-PD-1 antibody 150 μg IP Days 0, 3, 6, 10 (FIG. 1D)) read?
**A.** no instances in which complete regression was observed

**Q.** And the CT26 tumor growth ([1]; CFI-400945 6.5 mg/kg PO once daily for 21 days, single agent (FIG. 1C))?
**A.** tumor growth delay

**Q.** What about the “CT26 tumors with regression” value ([1]; CFI-400945 13 mg/kg PO twice a week for 21 days, alone (FIG. 1E) or with anti-PD-1 antibody 150 μg IP Days 0, 3, 6, 10 (FIG. 1F)) of the same compound?
**A.** one of the eight

**Q.** And the “CT26 tumors with regression” value ([1]; CFI-400945 52 mg/kg PO once weekly for 21 days, alone (FIG. 1G) or with anti-PD-1 antibody 150 μg IP Days 0, 3, 6, 10 (FIG. 1H))?
**A.** one of the eight

**Q.** What about the tolerability of dosage ([2]; CFI-400945 6.5 mg/kg PO daily for 21 days) of the same compound?
**A.** well-tolerated

**Q.** What about the “body weight loss or animal death” value ([2]; CFI-400945 6.5 mg/kg PO daily for 21 days, data not shown) of the same compound?
**A.** lack of any significant body weight loss (data not shown) or any animal death

**Q.** And the tolerability of dosage ([2]; CFI-400945 13 mg/kg PO twice a week for 21 days)?
**A.** well-tolerated

**Q.** And the tolerability of dosage ([2]; CFI-400945 52 mg/kg PO once weekly for 21 days)?
**A.** well-tolerated

**Q.** What about the animals found dead [2, 5] of the same compound?
**A.** two

**Q.** What about the tolerability of dosage [2, 5] of the same compound?
**A.** not be well-tolerated

**Q.** And the “tumor growth after re-challenge with CT26 cells on Day 36” value ([3]; animals with complete regression after CFI-400945 13 mg/kg BIW, alone (FIG. 1E) or + anti-PD-1 antibody (FIG. 1F))?
**A.** tumors did not grow in any mouse

**Q.** What about the “tumor growth after re-challenge with CT26 cells on Day 36” value ([3]; animals with complete regression after CFI-400945 52 mg/kg QW, alone (FIG. 1G) or + anti-PD-1 antibody (FIG. 1H)) of the same compound?
**A.** tumors did not grow in any mouse

**Q.** And the “regression of MC38 tumors” value [4]?
**A.** Regression was also observed
